Converted amounts (≈) assume the structure as drawn. Where two headings read alike, the source gives them in different places.
What was measured:
[1] = tested on: MTb H37Rv; test: Intracellular ATP levels (BacTiter-Glo); details: 24 h drug exposure
[2] = format: in vitro ADME; details: mouse, plasma
Procedure: In brief, a 96-well equilibrium dialysis apparatus was used to determine the free fraction in plasma for each compound (HT Dialysis LLC, Gales Ferry, CT). Membranes (12–14 kDaA cutoff) were conditioned in deionized water for 60 min, followed by conditioning in 80:20 deionized water/ethanol overnight and then rinsed in water and isotonic buffer before use. Mouse plasma from appropriate species was removed from the freezer and allowed to thaw on the day of experiment. Thawed plasma was then centrifuged (Allegra X12-R, Beckman Coulter, USA) and spiked with test compound (final concentration 10 μg/mL), and 150 μL aliquots (n = 3 replicate determinations) were loaded into the 96-well equilibrium dialysis plate. Dialysis against isotonic buffer (150 μL) was carried out for 5 h in a temperature controlled incubator at ca. 37 °C (Barworld scientific Ltd., UK) using an orbital microplate shaker at 100 rpm (Barworld scientific Ltd., UK). At the end of the incubation period, 50 μL aliquots of plasma or buffer were transferred into a 96-well deep plate and the composition in each well was balanced with control fluid (50 μL), such that the volume of buffer to plasma is the same. Sample extraction was performed by the addition of 200 μL of acetonitrile containing an appropriate internal standard. Samples were allowed to mix for 1 min and then centrifuged at 3000 rpm in 96-well blocks for 15 min (Allegra X12-R, Beckman Coulter, USA) after which 150 μL of supernatant was removed to 50 μL of water. All samples were analyzed by UPLC-MS/MS on a Quattro Premier XE Mass Spectrometer (Waters Corporation, USA). The unbound fraction was determined as the ratio of the peak area in buffer to that in plasma.

[3] = in vitro; format: in vitro ADME; details: PAMPA, pH 7.4
Procedure: The permeability was performed using a 96-well precoated BD Gentest PAMPA plate (BD Biosciences, U.K.). Each well was divided into two chambers: donor and acceptor, separated by a lipid-oil-lipid trilayer constructed in a porous filter. The effective permeability, Pe, of the compound was measured at pH 7.4. Stock solutions (5 mM) of the compound were prepared in DMSO. The compound was then further diluted to 10 μM in phosphate buffered saline at pH 7.4. […] The compound dissolved in phosphate buffered saline was then added to the donor side of the membrane, and phosphate buffered saline without compound was added to the acceptor side. The PAMPA plate was left at room temperature for 5 h; after which time, an aliquot (100 μL) was then removed from both acceptor and donor compartments and mixed with acetonitrile (80 μL) containing an internal standard: donepezil at 50 ng/mL). The samples were centrifuged (10 min, 5 °C, 3270g) to sediment precipitated protein and sealed prior to UPLC-MS/MS analysis using a Quattro Premier XE (Waters Corp, USA). Pe was calculated as shown in the below equation. [drawing 2] where CA(t) = peak area of compound present in acceptor well at time (t) = 18 000 s; Cequi = [CD(t) × VD + CA(t) × VA]/(VD + VA); A = filter area; VD = donor well volume; VA = acceptor well volume; t = incubation time; CD(t) = peak area of compound present in donor well at time (t) = 18 000 s. Recovery of compound from donor and acceptor wells was calculated, and data was only accepted when recovery exceeded 70%.

[4] = tested on: M. tuberculosis H37Rv; test: H37Rv MIC in GAST medium; format: cell-based, Mycobacterium tuberculosis
[5] = physchem; format: physicochemical; details: for solubility kinetic: water, kinetic from dmso stock
Procedure: The aqueous solubility of the test compounds was measured using laser nephelometry. Compounds were subject to serial dilution from 10 to 0.5 mM in DMSO. An aliquot was then mixed with Milli-Q water to obtain an aqueous dilution plate with a final concentration range of 250–12 μM, with a final DMSO concentration of 2.5%. Triplicate aliquots were transferred to a flat bottomed polystyrene plate which was immediately read on the NEPHELOstar (BMG Lab Technologies). The amount of laser scatter caused by insoluble particulates (relative nephelometry units, RNU) was plotted against compound concentration using a segmental regression fit, with the point of inflection being quoted as the compounds aqueous solubility (μM).

[6] = physchem; format: physicochemical; details: pH 7.4
Procedure: The chromatographic hydrophobicity index (CHI) was determined according the method previously described.[43],[44] Briefly, test compounds were prepared as 0.5 mM solutions in 50:50 acetonitrile/water and analyzed by reversed-phase HPLC-UV (wavelength 254 nm) using a Phenomenex Luna C18 100 Å, 150 × 4.6 mm, 5 μm column with a gradient of aqueous phase (50 mM ammonium acetate (pH 7.4)) and mobile phase (acetonitrile). By plotting the retention time of a set of reference compounds against known CHI values, the CHI value of test compounds was calculated according to their retention time.

[7] = target: T1, recombinant MBP-MtNdh (MTb NDH-2) (Mycobacterium tuberculosis, UniProt P95160); test: Ndh activity assay (NADH oxidation at 340 nm); format: biochemical; details: NADH 250 μM, Q2 40 μM; mean ± SD, Figure 6 inset; read-out: IC50 against MBP-MtNdh
T1 construct: The ORF corresponding to Rv1854c was codon optimized for E. coli; made in house; host or cells: E. coli BL21 (DE3) pLysS

[8] = tested on: M. tuberculosis H37Rv; test: microbe, parasite or virus in culture; format: cell-based; details: Mycobacterium tuberculosis
[9] = Mouse pharmacokinetics; format: in vivo, female C57Bl/6 mice; details: for AUC(0-t) / Cmax: 10 mg/kg; for AUC: whole blood, single rising oral dose
Procedure: Test compound was dosed as a bolus solution intravenously at 3 mg free base/kg (dose volume: 5 mL/kg; dose vehicle: 10% DMSO; 40% PEG400; 50% saline) to female C57Bl/6 mice (n = 3) or dosed orally by gavage as a suspension at 10 or at 5, 30, or 100 mg free base/kg (dose volume: 10 mL/kg; dose vehicle: 1.0% carboxy methyl cellulose) to female C57Bl/6 mice (n = 3/dose level). Blood samples were taken from each mouse tail vein at predetermined time points postdose, mixed with nine volumes of distilled water, and stored frozen until UPLC-MS/MS analysis. Pharmacokinetic parameters were derived from the blood concentration time curve using PK Solutions software v 2.0 (Summit Research Services, USA).

[10] = tested on: HepG2; test: cells; details: Homo sapiens, HepG2, read-out: HepG2 IC50
[11] = target: T1, recombinant MBP-MtNdh (MTb NDH-2); set-up: method as in PMID 15767566; details: range covering Figure 6 and literature; read-out: IC50 against NDH-2 (text, chlorpromazine); cited from earlier work
[12] = mouse liver microsomes
[13] = tested on: M. tuberculosis H37Rv; test: Extracellular flux analysis (oxygen consumption rate); details: 1 at 39 μM, 7 at 45 μM
[14] = tested on: HepG2; details: human
[15] = format: in vitro ADME; details: female, CD1, mouse, 0.5 μM, pH 7.4
Procedure: Test compound (0.5 μM) was incubated with female CD1 mouse liver microsomes (Xenotech LLC; 0.5 mg/mL, 50 mM potassium phosphate buffer, pH 7.4), and the reaction started with addition of excess NADPH (8 mg/mL, 50 mM potassium phosphate buffer, pH 7.4). Immediately, at time zero, and then at 3, 6, 9, 15, and 30 min, an aliquot (50 μL) of the incubation mixture was removed and mixed with acetonitrile (100 μL) to stop the reaction. Internal standard was added to all samples; the samples were centrifuged to sediment precipitated protein, and the plates were then sealed prior to UPLC-MS/MS analysis using a Quattro Premier XE (Waters Corporation, USA). XLfit (IDBS, UK) was used to calculate the exponential decay and consequently the rate constant (k) from the ratio of peak area of test compound to internal standard at each time point. The rate of intrinsic clearance (Cli) of each test compound was then calculated using the following calculation. [drawing 1] where V (mL/mg protein) is the incubation volume/mg protein added and microsomal protein yield is taken as 52.5 mg protein/g liver. Verapamil (0.5 μM) was used as a positive control to confirm acceptable assay performance.

[16] = tested on: cyd knockout strain (cydC::aph); format: cell-based, Mycobacterium tuberculosis
[17] = tested on: piniBAC reporter strain; format: cell-based, Mycobacterium tuberculosis; details: upregulation of iniBAC promoter
[18] = Calculated properties (StarDrop)
[19] = tested on: M. tuberculosis; test: microbe, parasite or virus in culture; format: cell-based; details: Mycobacterium tuberculosis; read-out: MIC (internal control reference compound)
[20] = Mycobacterium tuberculosis, H37RV, read-out: GAST MIC
[21] = Mycobacterium tuberculosis, H37RV, read-out: GAST MIC in ng/mL
[22] = female, C57Bl/6, mouse, in vivo, po
[23] = female, C57Bl/6, mouse, in vivo

T1 sequence (P95160 whole entry): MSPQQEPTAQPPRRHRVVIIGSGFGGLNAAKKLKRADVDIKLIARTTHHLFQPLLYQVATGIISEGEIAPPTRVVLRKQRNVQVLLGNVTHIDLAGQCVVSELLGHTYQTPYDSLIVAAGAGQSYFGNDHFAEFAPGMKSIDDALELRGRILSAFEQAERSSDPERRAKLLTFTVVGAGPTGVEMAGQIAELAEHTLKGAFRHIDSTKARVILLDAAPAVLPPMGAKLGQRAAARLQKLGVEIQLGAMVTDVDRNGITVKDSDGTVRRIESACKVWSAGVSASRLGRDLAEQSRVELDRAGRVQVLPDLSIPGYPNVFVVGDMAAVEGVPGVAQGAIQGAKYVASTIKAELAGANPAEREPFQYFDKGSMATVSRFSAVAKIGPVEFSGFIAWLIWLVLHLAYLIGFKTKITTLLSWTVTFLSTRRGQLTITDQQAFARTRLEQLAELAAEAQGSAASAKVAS

Structure (SMILES) | PPB (% unbound) [2] [% unbound] | Papp at 5 h, 10 μM [3] [×10⁻⁶ cm/s] | MIC [4, 20] [µM] | MIC [4, 21] [ng/mL] | Kinetic solubility [5] | solubility kinetic [5] [µM] | chromatographic logD [6] | IC50 [7] [µM] | MIC ([8]; read-out: 7H9-ADC MIC) [µM] | MIC ([8]; read-out: 7H9-ADC MIC in ng/mL) [ng/mL] | AUC(0-t) [9, 22] [ng·h/mL] | Cmax [9, 22] [ng/mL] | IC50 [10] [µM] | other results
COc1nc2ccc(Br)cc2cc1[C@@H](c1ccccc1)[C@@](O)(CCN(C)C)c1cccc2ccccc12 [bedaquiline] |  |  |  |  |  |  |  |  |  |  |  |  |  | Cellular ATP levels in MTb [1]: depletion of cellular ATP levels
O=C(CSc1nc2ccccc2c(=O)[nH]1)NCC1CCC(F)(F)CC1 [Compound 11, N-((4,4-Difluorocyclohexyl)methyl)-2-((4-oxo-3,4-dihydroquinazolin-2-yl)thio)acetamide] | 21 | 6.5 | 0.8 | 294 | >250 µM | 250 (≈ 91.9 µg/mL) | 1.6 | 0.026 ± 0.006 | 1.1 | 294 | 2140 | 1110 | > 50 | MIC ([4]; read-out: GAST MIC): 0.8 µM
CN(C)CCCN1c2ccccc2Sc2ccc(Cl)cc21 [CPZ, chlorpromazine, reference compound] |  |  |  |  |  |  |  | 25 ± 2 |  |  |  |  |  | IC50 [11]: 10 to 25 µM
O=C(CSc1nc2ccccc2c(=O)[nH]1)NC1CCC(F)(F)CC1 [Compound 7, N-(4,4-Difluorocyclohexyl)-2-((4-oxo-3,4-dihydroquinazolin-2-yl)thio)acetamide] | 13 | 6.4 | 0.4 | 141 | 111 (HCl salt) μM | 105 (≈ 37.1 µg/mL) | 1.5 | 0.0066 ± 0.004 | 0.4 | 141 | 1120 | 399 | > 50 | Mouse microsomal metabolite identification [12]: a small amount of amide bond cleavage as well as oxidation of the quinazolin-4(3H)-one ring; Human microsomal metabolite identification (human liver microsomes): oxidation of the quinazolinone ring; GSH trapping: adducts formed (with and without human liver microsomes): GSH adducts 12 and 13, without microsomal activation; Effect on maximal respiration after CCCP uncoupling ([13]; CCCP 3 μM, compared to untreated control): significantly diminished maximal respiration; Effect on basal MTb OCR ([13]; ~45 min, glucose or palmitate): minimal effect; Clb [9, 23]: 39 mL/min/kg; Vd [9, 23]: 1 L/kg; bioavailability [9, 23]: 29%; AUC ([9]; female, C57Bl/6, mouse, 5 mg/kg, read-out: AUC at 5 mg/kg oral (converted)): 9430 ng·h/mL; AUC ([9]; female, C57Bl/6, mouse, 30 mg/kg, read-out: AUC at 30 mg/kg oral (converted)): 2190 ng·h/mL; AUC ([9]; female, C57Bl/6, mouse, 100 mg/kg, read-out: AUC at 100 mg/kg oral (converted)): 2200 ng·h/mL; half-life ([9]; female, C57Bl/6, whole blood, C57 mouse PK at 3 iv and 10 po (mg/kg), 1 free base, 7 HCl salt): 1.3 h; Dose linearity (AUC comparison) ([9]; mouse, in vivo, po, 100 mg/kg): no dose linearity was observed; HepG2 cytotoxicity (in words) [14]: no HepG2 cytotoxicity was observed
O=C(CSc1nc2ccccc2c(=O)[nH]1)NCc1ccccc1 [Compound 2] |  |  | 5.9 |  |  | 109 (≈ 35.5 µg/mL) | 1.5 | 0.51 ± 0.05 | 4.5 |  |  |  |  | Microsomal Cli, mouse [15]: Mouse 1.6 mL/min/g; Cyd KO reporter [16]: Not likely QcrB inhibitor; pini-LUC reporter [17]: Not likely cell wall inhibitor; PFI [18]: 4.3
NNC(=O)c1ccncc1 [Isoniazid, isoniazid] |  |  |  |  |  |  |  |  |  |  |  |  |  | MIC [19]: 0.2 µM (≈ 0.0274 µg/mL)

Reference: PMC5996347, “2-Mercapto-Quinazolinones as Inhibitors of Type II NADH Dehydrogenase and Mycobacterium tuberculosis: Structure–Activity Relationships, Mechanism of Action and Absorption, Distribution, Metabolism, and Excretion Characterization” (ACS Infectious Diseases, 2018)
